{
  "source": "paper PMC6761534",
  "about": "(Antimicrobial Agents and Chemotherapy, 2019)",
  "key": {"[1]": {"system": "mycobacterial F-ATP synthase (ATPase activity)", "test": "Continuous ATP hydrolysis assay with M. smegmatis inverted membrane vesicles", "type": "biochemical, Mycobacterium smegmatis"}, "M. tuberculosis H37Rv": {"system": "M. tuberculosis H37Rv", "test": "microbe, parasite or virus in culture", "type": "cell-based", "conditions": "Mycobacterium tuberculosis, 168 h, read-out: M. tuberculosis H37Rv MIC90"}, "[2]": {"target": "mycobacterial F-ATP synthase (Mycobacterium bovis, UniProt A1KI93+A1KI99)", "sequence (A1KI93 whole entry, looked up)": "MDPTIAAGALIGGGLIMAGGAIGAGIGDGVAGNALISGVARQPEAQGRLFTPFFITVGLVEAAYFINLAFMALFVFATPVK", "sequence (A1KI99 whole entry, looked up)": "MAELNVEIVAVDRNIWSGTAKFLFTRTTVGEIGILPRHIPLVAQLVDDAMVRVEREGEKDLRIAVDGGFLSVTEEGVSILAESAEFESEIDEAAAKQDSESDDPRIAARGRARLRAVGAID", "test": "biochemical", "set-up": "species or system Mycobacterium bovis BCG"}, "[3]": {"target": "M. smegmatis F-ATP synthase (Mycolicibacterium smegmatis, UniProt A0R1Z9+A0R205)", "test": "biochemical", "set-up": "species or system Mycobacterium smegmatis"}, "M. bovis BCG [4]": {"system": "M. bovis BCG", "test": "microbe, parasite or virus in culture", "type": "cell-based", "conditions": "Mycobacterium tuberculosis variant bovis BCG, 24 h, read-out: IC50 ATP depletion (intrabacterial ATP)"}, "[5]": {"system": "M. smegmatis ε subunit overexpresser strain", "test": "microbe, parasite or virus in culture", "type": "cell-based", "conditions": "Mycolicibacterium smegmatis, 24 h, 1 day, read-out: MIC50 ± SD, ε overexpresser"}, "M. smegmatis WT": {"system": "M. smegmatis WT", "test": "microbe, parasite or virus in culture", "type": "cell-based, Mycobacterium smegmatis", "conditions": "Mycolicibacterium smegmatis; for MIC50: 24 h, read-out: MIC50 ± SD, M. smegmatis WT"}, "M. bovis BCG [6]": {"system": "M. bovis BCG", "test": "microbe, parasite or virus in culture", "type": "cell-based", "conditions": "Mycobacterium tuberculosis variant bovis BCG, 120 h, read-out: Growth inhibition MIC90"}},
  "data": [
    {"smiles": "COc1nc2ccc(Br)cc2cc1[C@@H](c1ccccc1)[C@@](O)(CCN(C)C)c1cccc2ccccc12", "note": "[BDQ, Bedaquiline, reference compound]", "values": [
      {"measurement": "Inhibition of ATPase activity", "setting": "[1]; 100 μM", "value": 78, "unit": "%"},
      {"measurement": "Inhibition of ATPase activity (in words)", "setting": "[1]; 250 μM", "value": "almost completely"},
      {"measurement": "MIC90", "setting": "M. tuberculosis H37Rv", "value": 400, "unit": "nM"},
      {"measurement": "IC50", "setting": "[2]", "value": 5.3, "unit": "nM"},
      {"measurement": "IC50", "setting": "[3]", "value": 0.2, "unit": "nM"},
      {"measurement": "IC50", "setting": "M. bovis BCG [4]", "value": 9.16, "unit": "nM"},
      {"measurement": "MIC50", "setting": "[5]", "value": "24 ± 0.1", "unit": "nM"},
      {"measurement": "MIC90", "setting": "M. smegmatis WT", "value": 100, "unit": "nM"},
      {"measurement": "MIC50", "setting": "M. smegmatis WT", "value": "12 ± 0.1", "unit": "nM"},
      {"measurement": "MIC90", "setting": "M. bovis BCG [6]", "value": 70, "unit": "nM"}
    ]},
    {"smiles": "COc1cc([C@](O)(CCN(C)C)[C@@H](c2cc3cc(Br)ccc3nc2OC)c2cc(OC)nc(OC)c2OC)cc(OC)n1", "note": "[TBAJ-876]", "values": [
      {"measurement": "Inhibition of ATPase activity (in words)", "setting": "[1]; BDQ-like", "value": "strong"},
      {"measurement": "MIC90", "setting": "M. tuberculosis H37Rv", "value": 125, "unit": "nM"},
      {"measurement": "IC50", "setting": "[2]", "value": 0.031, "unit": "nM"},
      {"measurement": "IC50", "setting": "[3]", "value": 0.0059, "unit": "nM"},
      {"measurement": "IC50", "setting": "M. bovis BCG [4]", "value": 0.89, "unit": "nM"},
      {"measurement": "MIC50", "setting": "[5]", "value": "2.75 ± 0.02", "unit": "nM"},
      {"measurement": "MIC90", "setting": "M. smegmatis WT", "value": 6.3, "unit": "nM"},
      {"measurement": "MIC50", "setting": "M. smegmatis WT", "value": "1.1 ± 0.05", "unit": "nM"},
      {"measurement": "MIC90", "setting": "M. bovis BCG [6]", "value": 7.2, "unit": "nM"}
    ]},
    {"smiles": "COc1cc([C@](O)(CCN(C)C)[C@@H](c2cc3cc(Br)ccc3nc2OC)c2ccnc(OC)c2OC)cc(OC)n1", "note": "[compound 5307]", "values": [
      {"measurement": "Inhibition of ATPase activity (in words)", "setting": "[1]; BDQ-like", "value": "strong"},
      {"measurement": "MIC90", "setting": "M. tuberculosis H37Rv", "value": 70, "unit": "nM"},
      {"measurement": "IC50", "setting": "[2]", "value": 0.091, "unit": "nM"},
      {"measurement": "IC50", "setting": "[3]", "value": 0.0087, "unit": "nM"},
      {"measurement": "IC50", "setting": "M. bovis BCG [4]", "value": 0.48, "unit": "nM"},
      {"measurement": "MIC50", "setting": "[5]", "value": "8 ± 0.1", "unit": "nM"},
      {"measurement": "MIC90", "setting": "M. smegmatis WT", "value": 3.5, "unit": "nM"},
      {"measurement": "MIC50", "setting": "M. smegmatis WT", "value": "0.8 ± 0.05", "unit": "nM"},
      {"measurement": "MIC90", "setting": "M. bovis BCG [6]", "value": 3.6, "unit": "nM"}
    ]},
    {"smiles": "COc1cc([C@](O)(CCN(C)C)[C@@H](c2cc3cc(Br)ccc3nc2OC)c2cccc3c2OCCO3)cc(OC)n1", "note": "[compound 5316]", "values": [
      {"measurement": "Inhibition of ATPase activity (in words)", "setting": "[1]; BDQ-like", "value": "strong"},
      {"measurement": "MIC90", "setting": "M. tuberculosis H37Rv", "value": 70, "unit": "nM"},
      {"measurement": "IC50", "setting": "[2]", "value": 0.047, "unit": "nM"},
      {"measurement": "IC50", "setting": "[3]", "value": 0.011, "unit": "nM"},
      {"measurement": "IC50", "setting": "M. bovis BCG [4]", "value": 0.34, "unit": "nM"},
      {"measurement": "MIC50", "setting": "[5]", "value": "1.68 ± 0.02", "unit": "nM"},
      {"measurement": "MIC90", "setting": "M. smegmatis WT", "value": 4.6, "unit": "nM"},
      {"measurement": "MIC50", "setting": "M. smegmatis WT", "value": "0.6 ± 0.03", "unit": "nM"},
      {"measurement": "MIC90", "setting": "M. bovis BCG [6]", "value": 3.6, "unit": "nM"}
    ]},
    {"smiles": "COc1cc([C@](O)(CCN(C)C)[C@H](c2cc(OC(C)C)cnc2OC)c2cc3cc(Br)ccc3nc2OC)cc(OC)n1", "note": "[compound 5366]", "values": [
      {"measurement": "Inhibition of ATPase activity", "setting": "[1]; 100 μM", "value": 36, "unit": "%"},
      {"measurement": "Inhibition of ATPase activity", "setting": "[1]; 250 μM", "value": 40, "unit": "%"},
      {"measurement": "MIC90", "setting": "M. tuberculosis H37Rv", "value": 30, "unit": "nM"},
      {"measurement": "IC50", "setting": "[2]", "value": 0.2, "unit": "nM"},
      {"measurement": "IC50", "setting": "[3]", "value": 0.0164, "unit": "nM"},
      {"measurement": "IC50", "setting": "M. bovis BCG [4]", "value": 0.32, "unit": "nM"},
      {"measurement": "MIC50", "setting": "[5]", "value": "14.3 ± 0.07", "unit": "nM"},
      {"measurement": "MIC90", "setting": "M. smegmatis WT", "value": 5.5, "unit": "nM"},
      {"measurement": "MIC50", "setting": "M. smegmatis WT", "value": "2.1 ± 0.06", "unit": "nM"},
      {"measurement": "MIC90", "setting": "M. bovis BCG [6]", "value": 3.4, "unit": "nM"}
    ]}
  ]
}
